The compounds below were run against T1, human orexin-2 receptor (OX2R) (Homo sapiens, UniProt O43614) (assay: Human OX2R IP1 assay). Settings: T-Rex CHO cells stably overexpressing human OX2R; IP1 (inositol monophosphate) accumulation, HTRF; 1 hr at 37 degrees C.
T1 construct: expressed in transfected cells
T1 sequence (O43614 1-444): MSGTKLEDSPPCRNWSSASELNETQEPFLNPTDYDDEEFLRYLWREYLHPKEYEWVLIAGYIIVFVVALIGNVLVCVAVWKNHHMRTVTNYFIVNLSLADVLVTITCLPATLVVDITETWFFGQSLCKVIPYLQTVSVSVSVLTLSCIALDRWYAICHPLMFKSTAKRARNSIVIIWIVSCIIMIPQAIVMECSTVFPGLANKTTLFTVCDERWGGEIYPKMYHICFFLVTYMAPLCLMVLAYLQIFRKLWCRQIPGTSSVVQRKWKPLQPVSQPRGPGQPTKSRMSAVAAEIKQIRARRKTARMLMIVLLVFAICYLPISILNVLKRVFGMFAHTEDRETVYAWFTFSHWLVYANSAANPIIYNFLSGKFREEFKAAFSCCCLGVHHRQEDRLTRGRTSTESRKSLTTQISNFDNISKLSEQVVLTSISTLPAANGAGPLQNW
Format: cell-based
Experimental: T-Rex CHO cells stably overexpressing the human orexin-2 receptor (OX2R) are induced overnight with 1 μg/mL of doxycycline in a T225 flask. 24 hours post induction, cells are lifted with accutase and plated into a 384-well proxy plate at 30,000 cells/well. Cells are then treated with different test compounds in 1× stimulation buffer containing 10 mM Hepes, 1 mM CaCl2), 0.5 mM MgCl2, 4.2 mM KCl, 146 mM NaCl, 5.5 mM glucose, and 50 mM LiCl, pH 7.4, for 1 hr at 37 degrees C. Following incubation, the reaction is terminated by the addition of detection mix, which is composed of IP1-d2 and anti-IP1-cryptate diluted in lysis buffer as well as 1× stimulation buffer. The plates are allowed to incubate for 1 hour at room temperature and are then read in the En Vision® multimode plate reader, measuring inositol phosphate levels.
Cisbio IP1 is a cell-based functional assay quantifying the accumulation of inositol monophosphate (IP), a metabolite released as a result of orexin 2 receptor activation through the phospholipase C-Gq signaling pathway. This is a competitive immunoassay in which the IP1 produced by the cells upon receptor activation competes with the IP1 analog coupled to the d2 fluorophore (acceptor) for binding to an anti-IP1 monoclonal antibody labeled with Eu cryptate (donor). The measured HTRF-FRET based signal is inversely proportional to the IP1 concentration produced.
The EC50 values reported in Table 2 were obtained according to the human OX2R IP1 assay described above. Data are the mean EC50 values±S.E.M.

EC50, > 1 µM:
COC(=O)N1CC[C@H](NS(=O)(=O)N(C)C)[C@H](CO[C@H]2CC[C@@H](c3cccc(F)c3)CC2)C1 [Compound 16]
CN(C)S(=O)(=O)N[C@H]1CCN(C(=O)C2CCC(F)(F)C2)C[C@H]1CO[C@H]1CC[C@@H](c2cccc(F)c2)CC1 (stereo partly shown) [Compound 13]
COCCN(C)S(=O)(=O)N[C@H]1CCN(c2cccnn2)C[C@H]1CO[C@H]1CC[C@@H](c2cccc(F)c2)CC1 [Compound 63]
CC(C)N(C)[C@H]1CCN(S(=O)(=O)N[C@H]2CCN(c3cccnn3)C[C@H]2CO[C@H]2CC[C@@H](c3cccc(F)c3)CC2)C1 [Compound 56]
CN(CCF)S(=O)(=O)N[C@H]1CCN(c2cccnn2)C[C@H]1CO[C@H]1CC[C@@H](c2cccc(F)c2)CC1 [Compound 64]
CCN(CC)S(=O)(=O)N[C@H]1CCN(c2cccnn2)C[C@H]1CO[C@H]1CC[C@@H](c2cccc(F)c2)CC1 [Compound 14]
CN(C)S(=O)(=O)N[C@H]1CCN(C(=O)OCC2(F)CCC2)C[C@H]1CO[C@H]1CC[C@@H](c2cccc(F)c2)CC1 [Compound 66]

Source: US20250223276A1, “Substituted Pyrrolidinyl And Piperidinyl Compounds And Related Methods Of Treatment” (Alkermes, Inc., priority 2022, published 2025)
